Laboratory results reported in ChEMBL document CHEMBL1201862, “PubChem BioAssay data set” (2004).
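96-well plates; 48 h exposure; 5 concentrations. Endpoints by linear interpolation between flanking doses. Not reached: highest tested concentration assigned. At the GI50, growth is halved.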 Active and inactive are the calls of the source. Cut-off read from the data, not from the text of the source: active = GI50 up to about 1.1 µM and inactive = higher.

What was measured:
Experiment in all cases: growth of human tumour cells (NCI), 48 h
[1] = tested on: A498
[2] = tested on: K562
[3] = tested on: HOP-92
[4] = tested on: COLO 205
[5] = tested on: SF-295
[6] = tested on: SK-MEL-2
[7] = tested on: ACHN
[8] = tested on: A549
[9] = tested on: SR
[10] = tested on: MDA-MB-231
[11] = tested on: SW-620
[12] = tested on: T47D
[13] = tested on: SN12C
[14] = tested on: HCT-116
[15] = tested on: SK-OV-3
[16] = tested on: SK-MEL-5
[17] = tested on: NCI-H226
[18] = tested on: OVCAR-8
[19] = tested on: NCI-H460

| SMILES | GI50 [1] | GI50 [2] | GI50 [3] | GI50 [4] | GI50 [5] | GI50 [6] | GI50 [7] | GI50 [8] | GI50 [9] | GI50 [10] | GI50 [11] | GI50 [12] | GI50 [13] | GI50 [14] | GI50 [15] | GI50 [16] | GI50 [17] | GI50 [18] | GI50 [19] |
| --- | --- | --- | --- | --- | --- | --- | --- | --- | --- | --- | --- | --- | --- | --- | --- | --- | --- | --- | --- |
| Oc1cc(-c2cccc(OC(F)(F)F)c2)nc2ccc(N3CCCC3)cc12 | 0.000322 µM (active) | < 0.0001 µM (active) | 0.0731 µM (active) | 0.00303 µM (active) | < 0.0001 µM (active) | 0.000127 µM (active) | 0.000622 µM (active) | 0.0103 µM (active) | < 0.0001 µM (active) | 0.00156 µM (active) | 0.00019 µM (active) | 26.3 µM (inactive) | 0.00041 µM (active) | 0.000121 µM (active) | 0.000117 µM (active) | 0.000209 µM (active) | 0.000142 µM (active) | 0.000426 µM (active) | 0.0025 µM (active) |
| COC1CCC(OC2CC(C3(C)CCC4(CC(O)C(C)C(C(C)/C=C(\C)C(=O)C(C)CC(C)C(=O)O)O4)O3)OC3(OC(C4OC(O)(CO)C(C)CC4C)CC3C)C2C)OC1C (stereo not drawn) | < 0.0169 µM (active) | < 0.0155 µM (active) | 0.482 µM (active) | < 0.0154 µM (active) | 0.179 µM (active) | 0.161 µM (active) | < 0.038 µM (active) | < 0.0154 µM (active) | < 0.01 µM (active) | 0.0621 µM (active) | < 0.0269 µM (active) | < 0.01 µM (active) | < 0.0319 µM (active) | < 0.0279 µM (active) | 0.528 µM (active) | < 0.0201 µM (active) | 0.378 µM (active) | < 0.0368 µM (active) | < 0.0144 µM (active) |
| OC[C@H](O)[C@@H](OCc1ccccc1)[C@H](NCc1ccccc1)c1cccs1 | > 100 µM (inactive) | > 100 µM (inactive) | > 100 µM (inactive) | > 100 µM (inactive) | > 100 µM (inactive) | > 100 µM (inactive) | > 100 µM (inactive) | > 100 µM (inactive) | > 100 µM (inactive) | > 100 µM (inactive) | > 100 µM (inactive) | > 100 µM (inactive) | > 100 µM (inactive) | 99.5 µM (inactive) | > 100 µM (inactive) | > 100 µM (inactive) | > 100 µM (inactive) | > 100 µM (inactive) | 85.7 µM (inactive) |
| C=CCSC1=N/C(=C\c2cccs2)C(=O)N1CC=C | 26.4 µM (inactive) | 29.4 µM (inactive) | 12.9 µM (inactive) | 56.2 µM (inactive) | 81.5 µM (inactive) | > 100 µM (inactive) | 54.6 µM (inactive) | 33.7 µM (inactive) | 32.5 µM (inactive) | 83.4 µM (inactive) | 82.2 µM (inactive) | 15.4 µM (inactive) | 53.1 µM (inactive) | 32.7 µM (inactive) | > 100 µM (inactive) | 32.3 µM (inactive) | 44.2 µM (inactive) | 44.6 µM (inactive) | 61.9 µM (inactive) |
| C[N+](C)(C)CC(=O)N/N=C/c1ccncc1 | > 100 µM (inactive) | > 100 µM (inactive) | > 100 µM (inactive) | > 100 µM (inactive) | > 100 µM (inactive) | > 100 µM (inactive) | > 100 µM (inactive) | > 100 µM (inactive) | > 100 µM (inactive) | > 100 µM (inactive) | > 100 µM (inactive) | > 100 µM (inactive) | > 100 µM (inactive) | > 100 µM (inactive) | > 100 µM (inactive) | > 100 µM (inactive) | > 100 µM (inactive) | > 100 µM (inactive) | > 100 µM (inactive) |
| O=C1CCCC1CN1CCCC1 (stereo not drawn) | 22.5 µM (inactive) | 0.251 µM (active) | 6.56 µM (inactive) | 3.78 µM (inactive) | > 100 µM (inactive) | 7.14 µM (inactive) | 6.08 µM (inactive) | > 75.5 µM (inactive) | 0.194 µM (active) | 15.5 µM (inactive) | 5.24 µM (inactive) | 2.75 µM (inactive) | 17.7 µM (inactive) | 3.44 µM (inactive) | 13.8 µM (inactive) | 18 µM (inactive) | 46.2 µM (inactive) | 17.3 µM (inactive) | 42.4 µM (inactive) |
| CC(C)Nc1[nH]c(C(=O)c2ccccc2)c(N)c1C(=S)Nc1ccccc1 | 77.6 µM (inactive) | 60.8 µM (inactive) | > 100 µM (inactive) | 28.1 µM (inactive) | > 100 µM (inactive) | 23.8 µM (inactive) | 63.1 µM (inactive) | 90.6 µM (inactive) | 43.5 µM (inactive) | 28.5 µM (inactive) | 47 µM (inactive) | 69.8 µM (inactive) | > 100 µM (inactive) | 36.1 µM (inactive) | > 100 µM (inactive) | 28.9 µM (inactive) | 41.3 µM (inactive) | 84.7 µM (inactive) | 57 µM (inactive) |
